Patent US20150065709A1, “Aminoquinazoline Derivative And Use Thereof In Preparing Anti-Malignant Tumor Medicament” (METABOMICS, INC, priority 2012, published 2015)
Where two headings read alike, the source gives them in different places.

Columns and labels:
HER2 = HER2 (Homo sapiens, UniProt P04626); assay: Caliper Mobility Shift Assay, inhibition of HER2 kinase activity; assay type: biochemical
EGFR = EGFR (Homo sapiens, UniProt P00533); assay: Caliper Mobility Shift Assay, inhibition of EGFR kinase activity; assay type: biochemical
Chain of EGFR (P00533 25-1210): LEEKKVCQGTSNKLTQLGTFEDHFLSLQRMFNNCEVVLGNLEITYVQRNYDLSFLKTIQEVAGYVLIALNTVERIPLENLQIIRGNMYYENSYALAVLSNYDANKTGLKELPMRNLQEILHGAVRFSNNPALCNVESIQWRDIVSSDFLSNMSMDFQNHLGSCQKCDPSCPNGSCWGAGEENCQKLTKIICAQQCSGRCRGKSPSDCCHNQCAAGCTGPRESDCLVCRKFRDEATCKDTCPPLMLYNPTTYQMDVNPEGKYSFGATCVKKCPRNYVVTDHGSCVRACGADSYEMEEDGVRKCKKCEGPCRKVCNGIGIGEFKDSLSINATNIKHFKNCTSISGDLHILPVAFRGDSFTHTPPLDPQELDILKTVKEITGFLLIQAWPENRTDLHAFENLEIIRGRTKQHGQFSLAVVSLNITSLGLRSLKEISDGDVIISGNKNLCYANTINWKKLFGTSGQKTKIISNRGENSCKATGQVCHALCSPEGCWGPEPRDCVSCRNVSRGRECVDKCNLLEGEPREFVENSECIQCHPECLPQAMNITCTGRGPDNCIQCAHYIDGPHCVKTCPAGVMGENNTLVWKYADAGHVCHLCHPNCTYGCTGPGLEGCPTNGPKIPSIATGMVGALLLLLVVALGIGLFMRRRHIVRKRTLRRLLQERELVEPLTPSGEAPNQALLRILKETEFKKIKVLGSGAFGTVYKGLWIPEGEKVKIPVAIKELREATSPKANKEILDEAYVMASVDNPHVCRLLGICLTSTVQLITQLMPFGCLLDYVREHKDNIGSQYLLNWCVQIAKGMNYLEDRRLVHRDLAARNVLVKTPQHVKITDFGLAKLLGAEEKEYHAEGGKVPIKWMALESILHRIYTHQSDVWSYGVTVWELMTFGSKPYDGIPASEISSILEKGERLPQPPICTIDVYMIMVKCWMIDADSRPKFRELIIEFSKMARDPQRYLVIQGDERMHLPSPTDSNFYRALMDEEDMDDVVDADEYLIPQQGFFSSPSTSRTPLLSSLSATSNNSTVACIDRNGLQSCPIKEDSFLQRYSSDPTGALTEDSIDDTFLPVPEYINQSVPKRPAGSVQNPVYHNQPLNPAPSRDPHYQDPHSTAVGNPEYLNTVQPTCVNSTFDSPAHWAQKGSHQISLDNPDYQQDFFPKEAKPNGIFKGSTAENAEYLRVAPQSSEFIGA

BT474 = assay: Inhibition of tumor cells, MTS method; assay type: cell-based; conditions: Homo sapiens, BT-474, 72 hours
Method: (§1) (1) Compounds: in vitro studies the test compounds was dissolved in 100% DMSO and diluted until the final concentration of DMSO was 0.1%. The 0.1% (v/v) DMSO was added into culture medium as solvent control. 9 concentration gradients were tested and each gradient was repeated twice. (2) Tumor cell lines: the tumor cell lines were cultivated in RPMI10 culture medium containing 10% fetal calf serum in incubator at 37° C. in a 5% CO2 air incubator. The tested tumor cell lines were: BT474, MDA-MB-231, SK-Br-3, A431, H292, H1975, HCC827, A549, H1650 and H1734. (3) MTS method: cells were seeded into 96-well plate to give a density of about 3000 cells per well, and incubated overnight in a humidified incubator at 37° C. In the next day, the test compounds were added to the wells and further incubated for 72 hours. The cell activity was detected using MTS. IC50 was calculated (the concentration of a compound that is required for 50% inhibition of the cell growth versus the DMSO control group, using nonlinear regression analysis of software GraphPad Prism). […] In a 96-well plate, each test compound was tested at 9 dosage concentrations and each dosage was made in triplicate. Samples were added in 100 μL/well. Cell control and negative control wells contained diluents instead of compounds. Except the negative control well, 100 μL cell suspension of complete medium was added into each test well, wherein corresponding cell numbers were included to assure that the cells in cell control well just cover the bottom of the well as the required incubation time was reached. The plate was incubated in a CO2 incubator at 37° C. for 48 hours. The liquid in test wells was removed by pipetting. 100 μL CCK-8 (Cell counting Kit-8, purchased from DOJINDO Molecular Technologies) detection liquid (containing 10% CCK-8, 5% FBS corresponding medium) was added into each test well, then the plate was incubated in a CO2 incubator under at 37° C. for 3 hours. OD value was detected by ELIASA at A450 nm. Cell viability percentage (%)=(O.D. test compound-O.D. blank)/(O.D. control-O.D. blank)×100. Mean value was calculated for each 3 repeated wells, and IC50 was calculated using nonlinear regression (fitted curve) data analysis method.

SK-Br-3 = assay: Inhibition of tumor cells, MTS method; assay type: cell-based; conditions: Homo sapiens, 72 hours
Method: as §1

HCC827 = assay: Inhibition of tumor cells, MTS method; assay type: cell-based; conditions: Homo sapiens, 72 hours
Method: as §1

H292 = assay: Inhibition of tumor cells, MTS method; assay type: cell-based; conditions: Homo sapiens, NCI-H292, 72 hours
Method: as §1

[1] = Pharmacokinetic experiments in CD-1 mice; assay type: in vivo; conditions: male, mouse, plasma; for half-life: read-out: Terminal t1/2 (converted); for Vd: read-out: Vss
Method: Experiment animals: CD-1 mice, male, 6-7 weeks of age; body weight: 20-25 g; Preparation of samples: the test compounds respectively were formulated to 0.2 mg/mL (for intravenous administration) and 1.0 mg/mL (for oral administration) for use. Administration routes: oral administration/intravenous administration. Amount and frequency of administration: 5 mL/kg for single administration.
Sample collection: blood was collected at the time points of 5 min, 15 min, 30 min, 1 h, 2 h, 4 h, 8 h and 24 h, about […] whole blood was collected from 3 animals at each time point. All of the animals were euthanized after the experiments.
Sample analysis: the collected samples were detected by LC-MS/MS, and the instrument model is SHIMADZU20A-API4000.
(§2) Pharmacokinetic data analysis: the obtained plasma concentration data were fitted and calculated using WinNolin according to non-compartment model.

H1975 = assay: Inhibition of tumor cells, MTS method; assay type: cell-based; conditions: Homo sapiens, NCI-H1975, 72 hours
Method: as §1

H1650 = assay: Inhibition of tumor cells, MTS method; assay type: cell-based; conditions: Homo sapiens, NCI-H1650, 72 hours
Method: as §1

H1734 = assay: Inhibition of tumor cells, MTS method; assay type: cell-based; conditions: Homo sapiens, NCI-H1734, 72 hours
Method: as §1

A431 = assay: Inhibition of tumor cells, MTS method; assay type: cell-based; conditions: Homo sapiens, A-431, 72 hours
Method: as §1

MDA-MB-231 = assay: Inhibition of tumor cells, MTS method; assay type: cell-based; conditions: Homo sapiens, 72 hours
Method: as §1

A549 = assay: Inhibition of tumor cells, MTS method; assay type: cell-based; conditions: Homo sapiens, 72 hours
Method: as §1

EGFR kinases = EGFR kinases (Homo sapiens, UniProt P00533); assay: Reversible inhibition test of enzyme activity of EGFR kinases; assay type: biochemical
Chain of EGFR kinases (P00533 25-1210): as above

[2] = Long-term toxicity experiment (28 days) in rats; assay type: in vivo
Method: (§3) Experiment Animals: rats, male, 6-8 weeks of age, body weight: 180-250 g; dogs, male, about 24 months, body weight: 7-10 kg.
(§4) Preparation of sample: in rat's experiments the mixed formulation powder of the compound Ie was formulated into 0.1, 0.3 and 1 mg/mL homogeneous suspension for use; administration route: oral administration; […]. In dog's experiments the tablets of compound Ie were fed to dogs. […].
(§5) Sample collection: blood was collected at the time points of 1, 10, 20 and 28 days respectively, about 120-200 μL whole blood was collected from 3 animals at each time point. Blood was collected at 1 h, 4 h, 8 h and 24 h after administration.
(§6) Sample analysis: the collected samples were detected by LC-MS/MS, and the instrument model was SHIMADZU20 A-API4000.
as §2

[3] = Long-term toxicity experiment (28 days) in dogs; assay type: in vivo; conditions: dogs, 5 mg/kg, 28 days; reaction of Afatinib group greater than compound Ie group
Method: as §3, §4, §5, §6, §2

Chain of HER2 (P04626 23-1255): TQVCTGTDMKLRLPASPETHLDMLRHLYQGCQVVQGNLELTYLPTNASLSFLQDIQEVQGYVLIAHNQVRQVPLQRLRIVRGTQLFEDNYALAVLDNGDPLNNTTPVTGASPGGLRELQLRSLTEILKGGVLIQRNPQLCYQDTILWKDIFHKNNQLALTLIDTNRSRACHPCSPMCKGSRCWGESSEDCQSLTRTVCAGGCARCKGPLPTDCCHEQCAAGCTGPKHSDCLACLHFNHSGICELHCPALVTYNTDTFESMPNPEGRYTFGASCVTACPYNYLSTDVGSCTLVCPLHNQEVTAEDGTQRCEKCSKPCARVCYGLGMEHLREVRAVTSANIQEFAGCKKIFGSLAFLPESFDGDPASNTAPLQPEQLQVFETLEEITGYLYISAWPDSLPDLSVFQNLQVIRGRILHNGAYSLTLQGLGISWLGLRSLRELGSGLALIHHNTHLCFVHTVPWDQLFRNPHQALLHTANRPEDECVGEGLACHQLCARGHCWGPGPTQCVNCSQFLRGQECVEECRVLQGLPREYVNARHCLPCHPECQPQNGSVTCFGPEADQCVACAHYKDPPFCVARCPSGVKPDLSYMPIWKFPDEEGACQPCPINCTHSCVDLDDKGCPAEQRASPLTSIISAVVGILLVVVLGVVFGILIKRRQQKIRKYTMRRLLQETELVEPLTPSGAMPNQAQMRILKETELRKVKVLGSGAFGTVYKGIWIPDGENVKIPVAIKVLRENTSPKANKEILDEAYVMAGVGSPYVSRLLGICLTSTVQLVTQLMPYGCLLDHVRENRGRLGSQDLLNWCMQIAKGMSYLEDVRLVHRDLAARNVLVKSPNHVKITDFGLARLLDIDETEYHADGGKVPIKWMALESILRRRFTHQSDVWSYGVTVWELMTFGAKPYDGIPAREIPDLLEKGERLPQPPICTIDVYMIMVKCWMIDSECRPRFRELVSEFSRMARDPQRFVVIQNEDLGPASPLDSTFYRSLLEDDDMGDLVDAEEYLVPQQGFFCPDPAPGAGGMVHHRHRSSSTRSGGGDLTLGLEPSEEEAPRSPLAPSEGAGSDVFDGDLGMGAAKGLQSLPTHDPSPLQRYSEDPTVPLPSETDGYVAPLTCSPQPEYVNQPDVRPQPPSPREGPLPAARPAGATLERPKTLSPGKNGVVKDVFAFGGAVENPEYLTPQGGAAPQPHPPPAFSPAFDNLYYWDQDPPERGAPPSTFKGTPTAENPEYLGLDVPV

COc1cc2ncnc(Nc3ccc(F)c(Cl)c3)c2cc1NC(=O)/C=C/c1ccccn1 [Compound Id]
IC50 (HER2): > 10000 nM
IC50 (EGFR): 5.1 nM
IC50 (BT474): 2.14 µM
IC50 (SK-Br-3): 0.155 µM
IC50 (HCC827): 0.04 µM
IC50 (H292): 44.1 µM

COc1cc2ncnc(Nc3ccc(F)c(Cl)c3)c2cc1NC(=O)/C=C/CN(C)Cc1ccccc1 [Compound Ic]
IC50 (HER2): 15 nM
AUC(0-inf) ([1]; 1 mg/kg Intravenous Injection): 206 ng·h/mL
AUC(0-t) ([1]; 1 mg/kg Intravenous Injection): 163 ng·h/mL
MRT inf ([1]; 1 mg/kg Intravenous Injection): 3.01 h
clearance ([1]; 1 mg/kg Intravenous Injection): 87.2 mL/min/kg
half-life ([1]; 1 mg/kg Intravenous Injection): 2.63 h
Vd ([1]; 1 mg/kg Intravenous Injection): 14.7 L/kg
AUC(0-t) ([1]; 5 mg/kg Oral Administration): 283 ng·h/mL
Cmax ([1]; 5 mg/kg Oral Administration): 66.7 ng/mL
Tmax ([1]; 5 mg/kg Oral Administration): 2 h
IC50 (EGFR): 1.3 nM
IC50 (H1975): 0.715 µM
IC50 (H1650): > 10 µM
IC50 (H1734): 5.26 µM
IC50 (A431): 13 µM
IC50 (BT474): 0.278 µM
IC50 (MDA-MB-231): 13.9 µM
IC50 (SK-Br-3): 0.418 µM
IC50 (HCC827): 0.012 µM
IC50 (A549): > 10 µM
IC50 (H292): 0.727 µM

CN(C/C=C/C(=O)Nc1cc2c(Nc3ccc(F)c(Cl)c3)ncnc2cc1OC1CCOC1)Cc1ccccc1 (stereo not drawn) [Compound Ia]
IC50 (HER2): 13 nM
AUC(0-inf) ([1]; 1 mg/kg Intravenous Injection): 110 ng·h/mL
AUC(0-t) ([1]; 1 mg/kg Intravenous Injection): 104 ng·h/mL
MRT inf ([1]; 1 mg/kg Intravenous Injection): 0.616 h
clearance ([1]; 1 mg/kg Intravenous Injection): 153 mL/min/kg
half-life ([1]; 1 mg/kg Intravenous Injection): 0.729 h
Vd ([1]; 1 mg/kg Intravenous Injection): 5.47 L/kg
AUC(0-inf) ([1]; 5 mg/kg Oral Administration): 140 ng·h/mL
AUC(0-t) ([1]; 5 mg/kg Oral Administration): 91.4 ng·h/mL
Cmax ([1]; 5 mg/kg Oral Administration): 31.4 ng/mL
Tmax ([1]; 5 mg/kg Oral Administration): 1.17 h
half-life ([1]; 5 mg/kg Oral Administration): 1.76 h
IC50 (EGFR): 2 nM
reversibility of inhibition of EGFR kinases (EGFR kinases): irreversibility
IC50 (H1975): 0.882 µM
IC50 (H1650): 6.57 µM
IC50 (H1734): 1.34 µM
IC50 (A431): 4.91 µM
IC50 (BT474): 0.264 µM
IC50 (SK-Br-3): 0.42 µM
IC50 (HCC827): 0.015 µM
IC50 (A549): 5.93 µM
IC50 (H292): 0.873 µM

O=C(/C=C/c1ccccn1)Nc1cc2c(Nc3ccc(F)c(Cl)c3)ncnc2cc1OC1CCOC1 (stereo not drawn) [Compound Ib]
IC50 (HER2): 90 nM
IC50 (EGFR): 3.9 nM
IC50 (H1975): 30.8 µM
IC50 (A431): 0.899 µM
IC50 (BT474): 3.18 µM
IC50 (MDA-MB-231): 4.01 µM
IC50 (SK-Br-3): 3.1 µM
IC50 (HCC827): 0.157 µM
IC50 (H292): 0.502 µM

CN(C)C/C=C/C(=O)Nc1cc2c(Nc3ccc(F)c(Cl)c3)ncnc2cc1O[C@H]1CCOC1 [Afatinib, reference compound]
toxicity reaction ([2]; rat, in vivo, 10 mg/kg): very significant toxicity reaction
weight during recovery phase after drug withdrawal ([2]; rat, in vivo, 10 mg/kg): reduced weight during the recovery phase
toxicity reaction ([2]; rats, 5 mg/kg, 28 days): significant toxicity reaction
toxicity reaction [3]: toxicity reactions
